DBAASP
Values after ≈ are worked out from the molar mass of the structure shown.

Legend:
Experiment in all cases: ≥ marks a high value that may be exact or a test limit, other limits are often not marked, values filed in µg/mL are converted to µM
[1] = system: Staphylococcus aureus ATCC 25923
[2] = system: Candida albicans ATCC 90028
[3] = system: Escherichia coli ATCC 25922
[4] = system: Staphylococcus epidermidis ATCC 12228
Pseudomonas aeruginosa = system: Pseudomonas aeruginosa
Staphylococcus aureus = system: Staphylococcus aureus
Escherichia coli = system: Escherichia coli
[5] = system: Staphylococcus aureus ATCC 29213
[6] = system: Pseudomonas aeruginosa ATCC 27853

| MIC [3] | MIC [4] | MIC (Staphylococcus aureus) | MIC (Escherichia coli) | Compound | other results |
| --- | --- | --- | --- | --- | --- |
| 0.63 µM (≈ 1.72 µg/mL) | 0.08 µM (≈ 0.218 µg/mL) | – | – | CC[C@H](C)[C@H](NC(=O)CN)C(=O)N[C@@H](CCCCN)C(=O)N[C@@H](CCCCN)C(=O)N[C@@H](Cc1c[nH]c2ccccc12)C(=O)N[C@@H](CC(C)C)C(=O)N[C@@H](Cc1cnc[nH]1)C(=O)N[C@@H](CCCCN)C(=O)NCC(=O)N[C@@H](CCCCN)C(=O)N[C@@H](CCCCN)C(=O)N[C@@H](Cc1ccccc1)C(=O)NCC(=O)N[C@@H](CCCCN)C(=O)N[C@@H](CCCCN)C(=O)N[C@@H](Cc1ccccc1)C(=O)N[C@H](C(=O)N[C@@H](CCCCN)C(=O)N[C@@H](CCCCN)C(=O)N[C@H](C(=O)N[C@@H](CCSC)C(=O)N[C@@H](CC(N)=O)C(=O)N[C@@H](CO)C(N)=O)[C@@H](C)CC)C(C)C [GIKKWLHKGKKFGKKFVKKIMNS] | – |
| 1.25 µM (≈ 3.43 µg/mL) | 0.31 µM (≈ 0.85 µg/mL) | – | – | CC[C@H](C)[C@H](NC(=O)CN)C(=O)N[C@@H](CCCCN)C(=O)N[C@@H](CCCCN)C(=O)N[C@@H](Cc1c[nH]c2ccccc12)C(=O)N[C@@H](CC(C)C)C(=O)N[C@@H](Cc1cnc[nH]1)C(=O)N[C@@H](CO)C(=O)N[C@@H](C)C(=O)N[C@@H](CCCCN)C(=O)N[C@@H](CCCCN)C(=O)N[C@@H](Cc1ccccc1)C(=O)N1CCC[C@H]1C(=O)N[C@@H](CCCCN)C(=O)N[C@@H](CCCCN)C(=O)N[C@@H](Cc1ccccc1)C(=O)N[C@H](C(=O)N[C@@H](CCCCN)C(=O)N[C@@H](CCCCN)C(=O)N[C@H](C(=O)N[C@@H](CCSC)C(=O)N[C@@H](CC(N)=O)C(=O)N[C@@H](CO)C(N)=O)[C@@H](C)CC)C(C)C [GIKKWLHSAKKFPKKFVKKIMNS] | – |
| 2.5 µM (≈ 6.82 µg/mL) | 1.25 µM (≈ 3.41 µg/mL) | – | – | CC[C@H](C)[C@H](NC(=O)CN)C(=O)N[C@@H](CCCCN)C(=O)N[C@@H](CCCCN)C(=O)N[C@@H](Cc1c[nH]c2ccccc12)C(=O)N[C@@H](CC(C)C)C(=O)N[C@@H](Cc1cnc[nH]1)C(=O)N[C@@H](CO)C(=O)N1CCC[C@H]1C(=O)N[C@@H](CCCCN)C(=O)N[C@@H](CCCCN)C(=O)N[C@@H](Cc1ccccc1)C(=O)NCC(=O)N[C@@H](CCCCN)C(=O)N[C@@H](CCCCN)C(=O)N[C@@H](Cc1ccccc1)C(=O)N[C@H](C(=O)N[C@@H](CCCCN)C(=O)N[C@@H](CCCCN)C(=O)N[C@H](C(=O)N[C@@H](CCSC)C(=O)N[C@@H](CC(N)=O)C(=O)N[C@@H](CO)C(N)=O)[C@@H](C)CC)C(C)C [GIKKWLHSPKKFGKKFVKKIMNS] | – |
| 10 µM (≈ 27.5 µg/mL) | 5 µM (≈ 13.8 µg/mL) | – | – | CC[C@H](C)[C@H](NC(=O)CN)C(=O)N[C@@H](CCCCN)C(=O)N[C@@H](CCCCN)C(=O)N[C@@H](Cc1c[nH]c2ccccc12)C(=O)N1CCC[C@H]1C(=O)N[C@@H](Cc1cnc[nH]1)C(=O)N[C@@H](CCCCN)C(=O)N1CCC[C@H]1C(=O)N[C@@H](CCCCN)C(=O)N[C@@H](CCCCN)C(=O)N[C@@H](Cc1ccccc1)C(=O)NCC(=O)N[C@@H](CCCCN)C(=O)N[C@@H](CCCCN)C(=O)N[C@@H](Cc1ccccc1)C(=O)N[C@H](C(=O)N[C@@H](CCCCN)C(=O)N[C@@H](CCCCN)C(=O)N[C@H](C(=O)N[C@@H](CCSC)C(=O)N[C@@H](CC(N)=O)C(=O)N[C@@H](CO)C(N)=O)[C@@H](C)CC)C(C)C [GIKKWPHKPKKFGKKFVKKIMNS] | – |

The remaining lines, values behind:

| Compound | MIC [3] | MIC [4] | MIC (Staphylococcus aureus) | MIC (Escherichia coli) | other results |
| --- | --- | --- | --- | --- | --- |
| CC[C@H](C)[C@H](NC(=O)CN)C(=O)NCC(=O)N[C@@H](CO)C(=O)N[C@H](C(=O)N[C@@H](CC(C)C)C(=O)NCC(=O)N[C@H](C(=O)N[C@H](C(=O)N[C@@H](C)C(=O)N[C@@H](CCCCN)C(=O)NCC(=O)N[C@@H](CC(C)C)C(=O)N1CCC[C@H]1C(=O)N[C@H](C(=O)N[C@@H](CC(C)C)C(=O)N[C@H](C(=O)N[C@@H](CO)C(=O)N[C@@H](Cc1c[nH]c2ccccc12)C(=O)N[C@H](C(=O)N[C@@H](CCCCN)C(=O)N[C@@H](CC(N)=O)C(=O)N[C@@H](CCCN=C(N)N)C(N)=O)[C@@H](C)CC)[C@@H](C)CC)[C@@H](C)O)[C@@H](C)CC)C(C)C)[C@@H](C)CC [GIGSILGVIAKGLPTLISWIKNR] | 20 µM (≈ 48.1 µg/mL) | – | – | – | MIC [1]: 5 µM (≈ 12 µg/mL); MIC [2]: 20 µM (≈ 48.1 µg/mL) |
| CC[C@H](C)[C@H](NC(=O)CN)C(=O)N[C@@H](CCCCN)C(=O)N[C@@H](CCCCN)C(=O)N[C@@H](Cc1c[nH]c2ccccc12)C(=O)N[C@@H](CC(C)C)C(=O)N[C@@H](Cc1cnc[nH]1)C(=O)N[C@@H](CO)C(=O)N[C@@H](C)C(=O)N[C@@H](CCCCN)C(=O)N[C@@H](CCCCN)C(=O)N[C@@H](Cc1ccccc1)C(=O)NCC(=O)N[C@@H](CCCCN)C(=O)N[C@@H](CCCCN)C(=O)N[C@@H](Cc1ccccc1)C(=O)N[C@H](C(=O)N[C@@H](CCCCN)C(=O)N[C@@H](CCCCN)C(=O)N[C@H](C(=O)N[C@@H](CCSC)C(=O)N[C@@H](CC(N)=O)C(=O)N[C@@H](CO)C(N)=O)[C@@H](C)CC)C(C)C [GIKKWLHSAKKFGKKFVKKIMNS] | 0.63 µM (≈ 1.7 µg/mL) | 0.16 µM (≈ 0.433 µg/mL) | – | – | – |
| CC[C@H](C)[C@H](N)C(=O)N[C@@H](CC(N)=O)C(=O)N[C@@H](Cc1c[nH]c2ccccc12)C(=O)N[C@@H](CC(C)C)C(=O)N[C@@H](CCCCN)C(=O)N[C@@H](CC(C)C)C(=O)NCC(=O)N[C@@H](CCCCN)C(=O)N[C@@H](CCCCN)C(=O)N[C@H](C(=O)N[C@@H](CC(C)C)C(=O)NCC(=O)N[C@@H](C)C(=O)N[C@@H](CC(C)C)C(N)=O)[C@@H](C)CC [INWLKLGKKILGAL] | – | – | 15.5 µM (≈ 24.3 µg/mL) | – | MIC (Pseudomonas aeruginosa): 86.6 µM (≈ 136 µg/mL) |
| CC(C)C[C@H](NC(=O)CNC(=O)[C@H](C)NC(=O)[C@H](CC(C)C)NC(=O)[C@H](CCCCN)NC(=O)[C@H](CCCCN)NC(=O)[C@H](C)NC(=O)[C@H](CC(C)C)NC(=O)CNC(=O)[C@H](C)NC(=O)[C@H](Cc1c[nH]c2ccccc12)NC(=O)[C@H](CCCCN)NC(=O)[C@H](CCCCN)NC(=O)[C@H](C)NC(=O)[C@H](CC(C)C)NC(=O)CNC(=O)[C@H](C)NC(=O)[C@H](CC(C)C)NC(=O)[C@H](CCCCN)NC(=O)[C@@H](N)CCCCN)C(=O)N[C@@H](C)C(N)=O [KKLAGLAKKWAGLAKKLAGLA] | – | – | 7.49 µM (≈ 16 µg/mL) | 3.74 µM (≈ 8 µg/mL) | MIC (Pseudomonas aeruginosa): 7.49 µM (≈ 16 µg/mL) |
| CC[C@H](C)[C@H](NC(=O)[C@H](CCCN=C(N)N)NC(=O)[C@H](CCC(N)=O)NC(=O)[C@@H](NC(=O)[C@H](C)NC(=O)[C@H](CCCN=C(N)N)NC(=O)[C@@H](N)CCCCN)C(C)C)C(=O)N[C@@H](CCCCN)C(=O)N[C@@H](CC(=O)O)C(=O)N[C@@H](Cc1ccccc1)C(=O)N[C@@H](CC(C)C)C(=O)N[C@@H](CCCN=C(N)N)C(=O)O [KRAVQRIKDFLR] | 5 µM (≈ 7.65 µg/mL) | – | – | – | MIC [5]: 20 µM (≈ 30.6 µg/mL); MIC [2]: ≥ 40 µM; MIC [6]: 10 µM (≈ 15.3 µg/mL) |
| C[C@H](NC(=O)[C@H](C)NC(=O)[C@H](CCCCN)NC(=O)[C@H](C)NC(=O)[C@H](Cc1ccccc1)NC(=O)[C@H](Cc1c[nH]c2ccccc12)NC(=O)[C@H](CCCCN)NC(=O)[C@H](Cc1c[nH]c2ccccc12)NC(=O)[C@H](CCCCN)NC(=O)[C@H](CCCCN)NC(=O)[C@H](C)NC(=O)[C@H](Cc1c[nH]c2ccccc12)NC(=O)[C@@H](N)CCCCN)C(=O)N[C@@H](Cc1c[nH]c2ccccc12)C(=O)N[C@@H](CCCCN)C(=O)N[C@@H](Cc1c[nH]c2ccccc12)C(=O)N[C@@H](Cc1ccc(O)cc1)C(=O)N[C@@H](CCCCN)C(=O)N[C@@H](CCCCN)C(N)=O [KWAKKWKWFAKAAWKWYKK] | – | – | > 38.9 µM | > 38.9 µM | – |
| CC[C@H](C)[C@H](NC(=O)[C@H](Cc1ccccc1)NC(=O)[C@H](CO)NC(=O)[C@H](CCCCN)NC(=O)[C@H](Cc1c[nH]c2ccccc12)NC(=O)[C@@H](N)CCCCN)C(=O)N[C@@H](CCCCN)C(=O)N[C@@H](CCCCN)C(=O)N[C@@H](CC(C)C)C(=O)N[C@H](C(=O)N[C@@H](CC(C)C)C(=O)N[C@@H](CCCCN)C(=O)N[C@@H](Cc1ccccc1)C(=O)N[C@@H](CC(C)C)C(=O)N[C@@H](Cc1cnc[nH]1)C(=O)N[C@@H](CO)C(=O)N[C@@H](CCCCN)C(=O)N[C@@H](CCCCN)C(=O)N[C@@H](CCCCN)C(=O)N[C@@H](Cc1ccccc1)C(N)=O)[C@@H](C)O [KWKSFIKKLTLKFLHSKKKF] | – | – | – | – | MIC (Pseudomonas aeruginosa): > 19.7 µM |
| CC(C)C[C@H](NC(=O)[C@H](CCCCN)NC(=O)[C@@H]1CSSC[C@H](NC(=O)[C@H](CC(C)C)NC(=O)[C@H](CCCCN)NC(=O)[C@H](CC(C)C)NC(=O)[C@H](CC(C)C)NC(=O)[C@H](CCCCN)NC(=O)[C@H](CCCCN)NC(=O)[C@@H](N)CC(C)C)C(=O)N[C@@H](CCCCN)C(=O)N[C@@H](CCCCN)C(=O)N[C@@H](CC(C)C)C(=O)N1)C(=O)N[C@@H](C)C(=O)NCC(=O)O [LKKLLKLCKKLCKLAG] | 5 µM (≈ 8.99 µg/mL) | – | – | 20 µM (≈ 36 µg/mL) | MIC [5]: > 40 µM |
| CC[C@H](C)[C@H](NC(=O)[C@H](Cc1c[nH]c2ccccc12)NC(=O)[C@H](CCCCN)NC(=O)[C@@H]1CCCN1C(=O)[C@H](CC(C)C)NC(=O)[C@H](CCCCN)NC(=O)CNC(=O)[C@@H](NC(=O)[C@@H](NC(=O)[C@H](CO)NC(=O)[C@@H](NC(=O)[C@@H](NC(=O)[C@H](CCCCN)NC(=O)[C@H](CCC(N)=O)NC(=O)[C@H](C)NC(=O)[C@@H](N)CCSC)[C@@H](C)CC)[C@@H](C)CC)[C@@H](C)O)[C@@H](C)CC)C(=O)N[C@H](C(=O)N[C@@H](CCCCN)C(=O)N[C@H](C(=O)N[C@H](C(=O)N[C@@H](CC(N)=O)C(=O)N[C@@H](CCCCN)C(=O)N[C@@H](Cc1ccccc1)C(=O)N[C@H](C(=O)N[C@@H](CCCCN)C(=O)N[C@@H](CCCCN)C(=O)O)[C@@H](C)O)C(C)C)[C@@H](C)O)[C@@H](C)CC [MAQKIISTIGKLPKWIIKTVNKFTKK] | – | – | 20.8 µM (≈ 62.7 µg/mL) | 3.4 µM (≈ 10.3 µg/mL) | – |
